Values of other authors as cited in US20260125371A1, “METHOD FOR INHIBITING CLOSTRIDIOIDES DIFFICILE SPORE GERMINATION” (UNIVERSITY OF NOTRE DAME DU LAC, priority 2022, published 2026).
Converted amounts (≈) assume the structure as drawn. Like-named read-outs stand apart in the source and are kept apart here.

Tested on: C. difficile strains
Details: cited from earlier work
[1] = C. difficile strains of Table 4

SMILES: FC(F)(F)c1ccc(Oc2ccc(-c3noc(-c4ccc5[nH]ccc5c4)n3)cc2)cc1 [Compound 1]
- IMIC50 (101 strains) (101 C. difficile strains): 4 µg/mL
- MIC90 (101 strains) (101 C. difficile strains): 8 µg/mL (≈ 19 µM)
- MIC (C. difficile 23828, resistant to FDX): 4 µg/mL (≈ 9.49 µM)
- MIC (C. difficile 24531, resistant to VAN): 4 µg/mL (≈ 9.49 µM)
- MIC (C. difficile 26675, resistant to MTZ): 4 µg/mL (≈ 9.49 µM)
- MIC (C. difficile BAA-1803): 2 µg/mL (≈ 4.75 µM)
- MIC (C. difficile BAA-1870): 4 µg/mL (≈ 9.49 µM)
- MIC (C. difficile NR49292): 2 µg/mL (≈ 4.75 µM)
- MIC (C. difficile NR49294): 1 µg/mL (≈ 2.37 µM)
- MIC (C. difficile NR49302): 2 µg/mL (≈ 4.75 µM)
- MIC (C. difficile NR49305): 4 µg/mL (≈ 9.49 µM)
- MIC (C. difficile NR49310): 2 µg/mL (≈ 4.75 µM)
- MIC (C. difficile NR49318): 2 µg/mL (≈ 4.75 µM)
- MIC50 [1]: 4 µg/mL (≈ 9.49 µM)
- MIC90 [1]: 8 µg/mL (≈ 19 µM)
- MIC (strain ATCC43598): 1 µg/mL (≈ 2.37 µM)
- MIC (strain BAA-1801): 4 µg/mL (≈ 9.49 µM)
- MIC (strain BAA-1803): 2 µg/mL (≈ 4.75 µM)
- MIC (strain BAA-1804): 2 µg/mL (≈ 4.75 µM)
- MIC (strain BAA-1812): 2 µg/mL (≈ 4.75 µM)
- MIC (strain BAA-1814): 4 µg/mL (≈ 9.49 µM)
- MIC (strain BAA-1870): 4 µg/mL (≈ 9.49 µM)
- MIC (strain HM-88): 8 µg/mL (≈ 19 µM)
- MIC (strain HM-89): 8 µg/mL (≈ 19 µM)
- MIC (strain HM-745): 8 µg/mL (≈ 19 µM)
- MIC (strain HM-746): 4 µg/mL (≈ 9.49 µM)
- MIC (strain HM-747): 8 µg/mL (≈ 19 µM)
- MIC (strain NR49292): 2 µg/mL (≈ 4.75 µM)
- MIC (strain NR49294): 1 µg/mL (≈ 2.37 µM)
- MIC (strain NR49302): 2 µg/mL (≈ 4.75 µM)
- MIC (strain NR49305): 4 µg/mL (≈ 9.49 µM)
- MIC (strain NR49310): 2 µg/mL (≈ 4.75 µM)
- MIC (strain NR49318): 2 µg/mL (≈ 4.75 µM)
- MIC (strain NR-13427): 4 µg/mL (≈ 9.49 µM)
- MIC (strain NR-13428): 8 µg/mL (≈ 19 µM)
- MIC (strain NR-13429): 8 µg/mL (≈ 19 µM)
- MIC (strain NR-13430): 8 µg/mL (≈ 19 µM)
- MIC (strain NR-13431): 4 µg/mL (≈ 9.49 µM)
- MIC (strain NR-13433): 4 µg/mL (≈ 9.49 µM)
- MIC (strain NR-13434): 4 µg/mL (≈ 9.49 µM)
- MIC (strain NR-13435): 4 µg/mL (≈ 9.49 µM)
- MIC (strain NR-13436): 8 µg/mL (≈ 19 µM)
- MIC (strain NR-13437): 8 µg/mL (≈ 19 µM)
- MIC (strain NR-13438): 4 µg/mL (≈ 9.49 µM)
- MIC (strain NR-13553): 4 µg/mL (≈ 9.49 µM)
- MIC (strain NR-32882): 4 µg/mL (≈ 9.49 µM)
- MIC (strain NR-32883): 4 µg/mL (≈ 9.49 µM)
- MIC (strain NR-32884): 4 µg/mL (≈ 9.49 µM)
- MIC (strain NR-32885): 8 µg/mL (≈ 19 µM)
- MIC (strain NR-32886): 4 µg/mL (≈ 9.49 µM)
- MIC (strain NR-32887): 8 µg/mL (≈ 19 µM)
- MIC (strain NR-32888): 8 µg/mL (≈ 19 µM)
- MIC (strain NR-32889): 4 µg/mL (≈ 9.49 µM)
- MIC (strain NR-32890): 4 µg/mL (≈ 9.49 µM)
- MIC (strain NR-32891): 8 µg/mL (≈ 19 µM)
- MIC (strain NR-32892): 4 µg/mL (≈ 9.49 µM)
- MIC (strain NR-32895): 2 µg/mL (≈ 4.75 µM)
- MIC (strain NR-32896): 2 µg/mL (≈ 4.75 µM)
- MIC (strain NR-32897): 8 µg/mL (≈ 19 µM)
- MIC (strain NR-32900): 8 µg/mL (≈ 19 µM)
- MIC (strain NR-32903): 8 µg/mL (≈ 19 µM)
- MIC (strain NR-32904): 4 µg/mL (≈ 9.49 µM)
- MIC (strain NR-49277): 4 µg/mL (≈ 9.49 µM)
- MIC (strain NR-49278): 4 µg/mL (≈ 9.49 µM)
- MIC (strain NR-49279): 4 µg/mL (≈ 9.49 µM)
- MIC (strain NR-49280): 8 µg/mL (≈ 19 µM)
